The compounds below were run against T1, F508del (Homo sapiens, UniProt P13569, DEL508-508) (assay: Protocol 2: FRET membrane potential optical assay (VIPR), identification of correction compounds). Conditions: Table 3; compounds of Table 1 as modulators of CFTR activity; protocol not stated.
T1 construct: expressed in transfected cells
Format: cell-based
How it was run: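 Single-addition HTS format: F508del-expressing NIH3T3 cells pre-incubated 16 hrs at 37° C. ± compound, with 27° C. culture as positive control. Channel activation by forskolin 10 μM and genistein 20 μM upon switch to gluconate bath, pH 7.4; read-out is FRET-based depolarization signal.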

T1 sequence (P13569 with tags, fused parts or gaps DEL508-508): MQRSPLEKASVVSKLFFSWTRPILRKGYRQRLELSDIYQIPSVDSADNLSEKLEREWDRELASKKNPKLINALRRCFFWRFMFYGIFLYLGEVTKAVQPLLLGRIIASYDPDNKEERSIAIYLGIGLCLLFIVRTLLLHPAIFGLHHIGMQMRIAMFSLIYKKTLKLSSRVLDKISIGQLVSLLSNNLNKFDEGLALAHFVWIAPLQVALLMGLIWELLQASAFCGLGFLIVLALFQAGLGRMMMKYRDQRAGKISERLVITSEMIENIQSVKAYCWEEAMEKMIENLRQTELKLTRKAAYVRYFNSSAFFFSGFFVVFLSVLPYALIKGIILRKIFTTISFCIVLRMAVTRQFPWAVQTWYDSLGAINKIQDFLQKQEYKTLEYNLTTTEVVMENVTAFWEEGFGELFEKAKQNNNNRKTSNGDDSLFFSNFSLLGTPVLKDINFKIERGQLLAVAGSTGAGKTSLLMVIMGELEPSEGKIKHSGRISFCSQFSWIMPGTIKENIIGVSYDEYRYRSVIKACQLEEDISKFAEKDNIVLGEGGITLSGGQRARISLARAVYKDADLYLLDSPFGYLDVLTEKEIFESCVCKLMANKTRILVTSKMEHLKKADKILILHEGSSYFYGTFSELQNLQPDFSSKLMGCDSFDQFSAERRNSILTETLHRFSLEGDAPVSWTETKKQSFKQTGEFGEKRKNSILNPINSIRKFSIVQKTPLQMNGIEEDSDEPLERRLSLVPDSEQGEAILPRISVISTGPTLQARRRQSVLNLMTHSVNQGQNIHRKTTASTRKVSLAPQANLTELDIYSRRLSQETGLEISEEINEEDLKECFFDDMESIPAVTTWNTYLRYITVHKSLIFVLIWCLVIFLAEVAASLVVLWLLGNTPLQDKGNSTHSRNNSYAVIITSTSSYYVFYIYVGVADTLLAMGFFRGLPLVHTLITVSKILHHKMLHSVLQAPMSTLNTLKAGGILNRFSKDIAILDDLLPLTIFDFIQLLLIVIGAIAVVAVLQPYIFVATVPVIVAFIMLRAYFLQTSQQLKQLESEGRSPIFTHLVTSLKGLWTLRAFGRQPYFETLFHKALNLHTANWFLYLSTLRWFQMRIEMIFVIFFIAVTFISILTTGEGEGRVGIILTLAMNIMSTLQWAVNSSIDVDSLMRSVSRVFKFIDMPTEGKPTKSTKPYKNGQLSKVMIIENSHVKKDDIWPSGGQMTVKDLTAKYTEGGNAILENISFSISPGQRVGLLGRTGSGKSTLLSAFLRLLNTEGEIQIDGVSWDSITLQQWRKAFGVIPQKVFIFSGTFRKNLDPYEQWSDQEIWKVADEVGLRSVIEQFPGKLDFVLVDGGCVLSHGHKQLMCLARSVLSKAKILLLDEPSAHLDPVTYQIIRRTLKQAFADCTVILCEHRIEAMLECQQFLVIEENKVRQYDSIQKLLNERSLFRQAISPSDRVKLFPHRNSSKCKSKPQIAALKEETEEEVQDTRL

SMILES | EC30
CC1CCN(c2nc(-c3cc(F)cc(OC(C)C)c3)ccc2C(=O)NS(=O)(=O)c2cccc(N)n2)CC1 [Compound 600, N-[(6-amino-2-pyridyl)sulfonyl]-6-(3-fluoro-5-isopropoxy-phenyl)-2-(4-methyl-1-piperidyl)pyridine-3-carboxamide] | +++ (“+++” means <3 uM)
CC(C)Oc1ccc(-c2ccc(C(=O)NS(=O)(=O)c3cccc(N)n3)c(N3C(C)CC(c4ccccc4)C3C)n2)cn1 (stereo not shown) [Compound 601, N-[(6-amino-2-pyridyl)sulfonyl]-2-(2,5-dimethyl-3-phenyl-pyrrolidin-1-yl)-6-(6-isopropoxy-3-pyridyl)pyridine-3-carboxamide] | +++ (“+++” means <3 uM)
CC(C)COc1cc(F)cc(-c2ccc(C(=O)NS(=O)(=O)c3ccc[nH]c3=O)c(N3C[C@H](C)CC3(C)C)n2)c1 [Compound 605, 6-(3-fluoro-5-isobutoxy-phenyl)-N-[(2-oxo-1H-pyridin-3-yl)sulfonyl]-2-[(4R)-2,2,4-trimethylpyrrolidin-1-yl]pyridine-3-carboxamide] | +++ (“+++” means <3 uM)
COCC1CCN(c2nc(-c3ccc(OC(C)C)nc3)ccc2C(=O)NS(=O)(=O)c2cccc(N)n2)CC1 [Compound 606, N-[(6-amino-2-pyridyl)sulfonyl]-6-(6-isopropoxy-3-pyridyl)-2-[4-(methoxymethyl)-1-piperidyl]pyridine-3-carboxamide] | ++ (“++” means between 3 uM and 10 uM)
Cc1ccc(-c2ccc(C(=O)NS(=O)(=O)c3nccnc3N)c(Oc3ccc(C)cc3C)n2)cc1 [Compound 607, N-(3-aminopyrazin-2-yl)sulfonyl-2-(2,4-dimethylphenoxy)-6-(p-tolyl)pyridine-3-carboxamide] | +++ (“+++” means <3 uM)
COc1cc(F)ccc1-c1ccc(C(=O)NS(=O)(=O)c2ccc[nH]c2=O)c(Oc2c(C)cc(C)cc2C)n1 [Compound 608, 6-(4-fluoro-2-methoxy-phenyl)-N-[(2-oxo-1H-pyridin-3-yl)sulfonyl]-2-(2,4,6-trimethylphenoxy)pyridine-3-carboxamide] | ++ (“++” means between 3 uM and 10 uM)
CC(C)COc1cc(F)cc(-c2ccc(C(=O)NS(=O)(=O)c3cccc(N)n3)c(N3CC4C(C3)C4(C)C)n2)c1 (stereo not shown) [Compound 609, N-[(6-amino-2-pyridyl)sulfonyl]-2-(6,6-dimethyl-3-azabicyclo[3.1.0]hexan-3-yl)-6-(3-fluoro-5-isobutoxy-phenyl)pyridine-3-carboxamide] | +++ (“+++” means <3 uM)
CC(C)COc1cc(F)cc(-c2ccc(C(=O)NS(=O)(=O)c3cccc(N)n3)c(N3CCC(C(C)(C)C)C3)n2)c1 (stereo not shown) [Compound 611, N-[(6-amino-2-pyridyl)sulfonyl]-2-(3-tert-butylpyrrolidin-1-yl)-6-(3-fluoro-5-isobutoxy-phenyl)pyridine-3-carboxamide] | +++ (“+++” means <3 uM)
COc1ncc(-c2ccc(C(=O)NS(=O)(=O)c3cccc(N)n3)c(Oc3c(C)cc(C)cc3C)n2)cc1F [Compound 612, N-[(6-amino-2-pyridyl)sulfonyl]-6-(5-fluoro-6-methoxy-3-pyridyl)-2-(2,4,6-trimethylphenoxy)pyridine-3-carboxamide] | +++ (“+++” means <3 uM)
CC(C)COc1cc(F)cc(-c2ccc(C(=O)NS(=O)(=O)c3cccc(N)n3)c(N3CCCC3C(C)(C)C)n2)c1 (stereo not shown) [Compound 613, N-[(6-amino-2-pyridyl)sulfonyl]-2-(2-tert-butylpyrrolidin-1-yl)-6-(3-fluoro-5-isobutoxy-phenyl)pyridine-3-carboxamide] | +++ (“+++” means <3 uM)
CCC1CCN(c2nc(-c3cc(F)cc(OCC(C)C)c3)ccc2C(=O)NS(=O)(=O)c2cccc(N)n2)CC1 [Compound 615, N-[(6-amino-2-pyridyl)sulfonyl]-2-(4-ethyl-1-piperidyl)-6-(3-fluoro-5-isobutoxy-phenyl)pyridine-3-carboxamide] | +++ (“+++” means <3 uM)
Cc1nc(OCC(C)C)ccc1-c1ccc(C(=O)NS(=O)(=O)c2cccc(N)n2)c(N2CC(C)CC2(C)C)n1 (stereo not shown) [Compound 616, N-[(6-amino-2-pyridyl)sulfonyl]-6-(6-isobutoxy-2-methyl-3-pyridyl)-2-(2,2,4-trimethylpyrrolidin-1-yl)pyridine-3-carboxamide] | +++ (“+++” means <3 uM)
CCC1(COc2nc(-c3cc(F)cc(OCC(C)C)c3)ccc2C(=O)NS(=O)(=O)c2cccc(N)n2)COC1 [Compound 618, N-[(6-amino-2-pyridyl)sulfonyl]-2-[(3-ethyloxetane-3-yl)methoxy]-6-(3-fluoro-5-isobutoxy-phenyl)pyridine-3-carboxamide] | ++ (“++” means between 3 uM and 10 uM)
CCC1CCN(c2nc(-c3ccc(OC(C)C)nc3)ccc2C(=O)NS(=O)(=O)c2cccc(N)n2)CC1 [Compound 619, N-[(6-amino-2-pyridyl)sulfonyl]-2-(4-ethyl-1-piperidyl)-6-(6-isopropoxy-3-pyridyl)pyridine-3-carboxamide] | +++ (“+++” means <3 uM)
CC(C)COc1cc(F)cc(-c2ccc(C(=O)NS(=O)(=O)c3ccccc3)c(N3CC(C)CC3(C)C)n2)c1 (stereo not shown) [Compound 620, N-(benzenesulfonyl)-6-(3-fluoro-5-isobutoxy-phenyl)-2-(2,2,4-trimethylpyrrolidin-1-yl)pyridine-3-carboxamide] | +++ (“+++” means <3 uM)

Other lines, results leading:

EC30 | SMILES
+++ (“+++” means <3 uM) | CCOc1ccc(F)c(-c2ccc(C(=O)NS(=O)(=O)c3cccc(N)n3)c(Oc3c(C)cc(C)cc3C)n2)c1 [Compound 599, N-[(6-amino-2-pyridyl)sulfonyl]-6-(5-ethoxy-2-fluoro-phenyl)-2-(2,4,6-trimethylphenoxy)pyridine-3-carboxamide]
+++ (“+++” means <3 uM) | CCOc1ccc(-c2ccc(C(=O)NS(=O)(=O)c3cccc(N)n3)c(Oc3c(C)cc(C)cc3C)n2)c(F)c1 [Compound 602, N-[(6-amino-2-pyridyl)sulfonyl]-6-(4-ethoxy-2-fluoro-phenyl)-2-(2,4,6-trimethylphenoxy)pyridine-3-carboxamide]
+++ (“+++” means <3 uM) | Cc1cccc(C)c1Cn1nc(C(C)(C)C)cc1C(=O)NS(=O)(=O)c1ccsc1 [Compound 603, 5-tert-butyl-2-[(2,6-dimethylphenyl)methyl]-N-(3-thienylsulfonyl)pyrazole-3-carboxamide]
+++ (“+++” means <3 uM) | Cc1cc(C)c(CN2c3ccccc3CCCC2C(=O)NS(=O)(=O)c2ccccc2)c(C)c1 (stereo not shown) [Compound 604, N-(benzenesulfonyl)-1-[(2,4,6-trimethylphenyl)methyl]-2,3,4,5-tetrahydro-1-benzazepine-2-carboxamide]
+++ (“+++” means <3 uM) | Cc1ccc(-c2ccc(C(=O)NS(=O)(=O)c3cc[nH]n3)c(Oc3ccc(C)cc3C)n2)cc1 [Compound 610, 2-(2,4-dimethylphenoxy)-6-(p-tolyl)-N-(1H-pyrazol-3-ylsulfonyl)pyridine-3-carboxamide]
+++ (“+++” means <3 uM) | Cc1ccc(-c2ccc(C(=O)NS(=O)(=O)c3cccc(N)n3)c(N3CC(C)CC3(C)C)n2)c(C)c1 (stereo not shown) [Compound 614, N-[(6-amino-2-pyridyl)sulfonyl]-6-(2,4-dimethylphenyl)-2-(2,2,4-trimethylpyrrolidin-1-yl)pyridine-3-carboxamide]
+++ (“+++” means <3 uM) | CC1CC(C)CN(c2nc(C(C)(C)C)ccc2C(=O)NS(=O)(=O)c2cccc(N)n2)C1 (stereo not shown) [Compound 617, N-[(6-amino-2-pyridyl)sulfonyl]-6-tert-butyl-2-(3,5-dimethyl-1-piperidyl)pyridine-3-carboxamide]

Reference: patent publication US10758534B2 (Vertex Pharmaceuticals Incorporated, priority 2014, dated 2020)
